Measured values taken from patent publication US4670539A, “Peptide growth factors derived from estrogen responsive kidney tissue” (Board of Regents, The University of Texas, priority 1984, dated 1987).

Legend:
[1] = tested on: NRK (normal rat kidney) cells; assay: tritium labeled thymidine incorporation of low and high passage NRK cells, with and without EGF; assay type: cell-based; settings: low passage NRK cells, serum free medium
Source text: (§1) Further exploration of this point was done with the cell line designated NRK (normal rat kidney). When used at a low passage number these cells behave as a normal, non-tumorigenic line, as evidenced by their low rates of colony formation in soft agar. This growth pattern facilitated wide spread use of the NRK cells as bioassay targets for alpha- and beta-transforming growth factors. The bioassay of transforming growth factors by soft agar colony formation was shown by others to require the additon of epidermal growth factor (EGF). At higher passage numbers, these cells progressively increase their capacity to form colonies in soft agar without requiring the presence of growth factor supplements to the usual serum containing medium. Using these properties, we have asked whether low and high passage NRK cells responded to KDGF both with and without added EGF. These experiments were conducted in serum free medium, since the presence of even low concentrations (i.e. 1%, vol/vol) of serum inhibited KDGF action. […] Thus with the relatively non-tumorigenic pheno-type NRK cells, KDGF and EGF were synergistic when cells were in sparse culture. […] In a final experiment, the growth promoting effects of EGF and/or KDGF were compared on LLCK-PK1 pig kidney cells. […] EGF alone was mitogenic for LLCK-PK1 cells, whereas KDGF was not. […]

MDCK kidney cell line = assay: growth response of MDCK cells; assay type: cell-based, dog
[2] = tested on: LLCK-PK1 pig kidney cells; assay: growth promoting effects of EGF and/or KDGF on LLCK-PK1 cells; assay type: cell-based
Source text: as §1

epidermal growth factor [EGF]
growth (tritium labeled thymidine incorporation), factor alone ([1]; confluent cultures): Neither KDGF alone nor EGF alone promoted growth
mitogenic response, factor alone ([1]; non-confluent cultures): limited mitogenic responses
growth response (MDCK kidney cell line): responded
mitogenic activity, factor alone [2]: mitogenic
